“Also recorded” adds a separate entry of the source.
What was measured:
[1] = available chlorine over one hour in mixtures of a chelator and a sodium hypochlorite solution, titration with sodium thiosulfate (FIGS. 2 and 3); format: physicochemical; settings: for loss of available hypochlorite anions: admixture into sodium hypochlorite solution
Excerpt: To measure the amount of hypochlorite, it has to be transferred by acidification to chlorine, which oxidizes potassium iodide to iodine. The latter is then titrated with a sodium thiosulfate solution.
In particular, the chlorine reduction from a 9 weight percentage and 18 weight percentage of Na4HEDP with reference to the total weight of the sodium hypochlorite solution as well as the chlorine reduction from a 3 weight percentage and 18 weight percentage of Na4EDTA with reference to the total weight of the sodium hypochlorite solution, respectively, was monitored over one hour, which is the normal duration of an endodontic treatment. The Na4HEDP and the Na4EDTA were each dissolved in a sodium hypochlorite solution comprising 1 weight percentage of sodium hypochlorite with reference to the total weight of the sodium hypochlorite solution.
The amount of chlorine over time was compared with a control solution of 1 weight percentage of pure sodium hypochlorite. In order to determine the amount of the available chlorine, aliquots of each solution (approximately 0.5 grams) were removed after 1 minute, 10 minutes, 20 minutes, 30 minutes and 60 minutes and assessed for their amount of available chlorine using a titration apparatus. Thereby, a 0.1 molar sodium thiosulfate solution was used as titrator.
In FIG. 3, the same measurements are performed using the same amounts of Na4HEDP and Na4EDTA as in FIG. 2, whereby these chelators are each admixed into a NaOCl solution comprising 5 weight percentage of NaOCl.

[2] = evolution of the pH-value of calcium hydroxide with Na4HEDP in distilled water (FIG. 4); format: physicochemical; settings: 1 gram calcium hydroxide and 0.1 gram Na4HEDP in 10 milliliter distilled water, 10 minutes
Method: FIG. 4 depicts the evolution of the pH-value over time determined for the admixture of Na4HEDP and calcium hydroxide in solid form and only calcium hydroxide in solid form, respectively, into distilled water. The solutions are prepared by mixing 1 gram of calcium hydroxide in solid form and 0.1 gram of Na4HEDP in a glass vial. 10 milliliter of distilled water was added, and the pH measurement was started immediately and continued for 10 minutes. As a control, the pH value of 1 gram pure calcium hydroxide dissolved in 10 milliliter of distilled water was recorded, too. […] Consequently, the addition of Na4HEDP to calcium hydroxide can trigger an earlier onset of the desired disinfecting effect. In addition, the binding capacity of Na4HEDP to Ca^2+ makes it easier to remove the calcium hydroxide slurry from the root canal system before the canal is filled with an alloplastic material.

[3] = 18 weight percentage chelator in 1 weight percentage NaOCl solution, after one hour
[4] = 18 weight percentage chelator in 1 weight percentage NaOCl solution, at the start

Row | SMILES | relative amount of chlorine compared to pure NaOCl control ([1]; 3 weight percentage chelator in 1 weight percentage NaOCl solution, after one hour) | relative amount of chlorine compared to pure NaOCl control ([1]; 3 weight percentage chelator in 1 weight percentage NaOCl solution, at the start) | relative amount of chlorine compared to pure NaOCl control [1, 3] | relative amount of chlorine compared to pure NaOCl control [1, 4] | loss of available hypochlorite anions ([1]; over the course of one hour) | amount of chlorine ([1]; chelator in 5 weight percentage NaOCl solution, after one hour) | relative amount of chlorine compared to pure NaOCl control ([1]; 9 weight percentage chelator in 1 weight percentage NaOCl solution, after one hour) | relative amount of chlorine compared to pure NaOCl control ([1]; 9 weight percentage chelator in 1 weight percentage NaOCl solution, at the start) [percentage] | drop of the amount of chlorine ([1]; chelator in 5 weight percentage NaOCl solution, over the course of one hour) | pH value of the slurry compared to calcium hydroxide alone [2]
1 | O=C([O-])CN(CCN(CC(=O)[O-])CC(=O)[O-])CC(=O)[O-].[Na+].[Na+].[Na+].[Na+] [Na4EDTA, reference compound] | below 25 weight percentage | about 95 weight percentage | below 25 weight percentage | about 75 weight percentage | pronounced loss | zero | – | – | – | –
2 | CC(O)(P(=O)([O-])[O-])P(=O)([O-])[O-].[Na+].[Na+].[Na+].[Na+] [Na4HEDP, tetrasodium (1-hydroxyethane)-1,1′-di-phosphonate] | – | – | about 75 weight percentage | ~100 percentage | no significant loss; also recorded: does not cause any significant loss | – | about 90 weight percentage | ~100 | less than 25 percentage | higher pH value which increases faster

From patent US10434038B2, “Solid phosphonate salts as an add-on in endodontics” (smartodont GmbH, priority 2016, dated 2019)
